In patent US20240059688A1, “CONOLIDINE ANALOGUES AS SELECTIVE ACKR3 MODULATORS FOR THE TREATMENT OF CANCER” (Luxembourg Institute of Health (LIH), priority 2020, published 2024):

Experiments:
CaV 3.2 = target: T1, CaV 3.2 (Homo sapiens, UniProt O95180); assay: CaV 3.2 calcium assay in stable human CaV3.2-HEK293 cells; format: cell-based; settings: control agonist calcium chloride
T1 construct: expressed in transfected cells
Experimental: Compounds were evaluated for kappa (KOR), mu (MOR), and delta (DOR) opioid receptor agonist and antagonist activity in three individual cell lines overexpressing Gαq16 (CHO-RD-HGA16, Molecular Devices) and the human kappa, mu, and delta opioid receptors, respectively. The day before the assay, cells were plated into 96-well black-walled assay plates at 30,000 cells/well in Ham's F12 supplemented with 10% fetal bovine serum, and 100 units of penicillin and streptomycin. The cells were incubated overnight at 37° C., 5% CO2. Prior to the assay, Calcium 5 dye (Molecular Devices) was reconstituted according to the manufacturer's instructions. The reconstituted dye was diluted 1:40 in pre-warmed (37° C.) assay buffer (1×HBSS, 20 mM HEPES, 2.5 mM probenecid, pH 7.4 at 37° C.). Growth medium was removed and the cells were gently washed with 100 μL of pre-warmed (37° C.) assay buffer. The cells were incubated for 45 minutes at 37° C., 5% CO2 in 200 μL of the diluted Calcium 5 dye. For the agonist screen, a single concentration of each test compound and receptor-specific controls (U69,593, DAMGO, and DPDPE for KOR, MOR, and DOR, respectively) were prepared at 10× the desired final concentration in 1% DMSO/assay buffer, aliquoted into a 96-well polystyrene plate, and warmed to 37° C. After the dye-loading incubation period, pretreatment solution was added to each well (25 μL of 9% DMSO/assay buffer) and, after 15 min, the plate was read with a FlexStation II (Molecular Devices). Calcium-mediated changes in fluorescence were monitored every 1.52 seconds over a 60 second time period, with the FlexStation II adding 50 μL of test compounds at the 19 second time point (excitation at 485 nm, detection at 525 nm). Peak kinetic reduction (SoftMax, Molecular Devices) relative fluorescence units (RFU) were used to calculate % control agonist Emax with the equation % Emax=(test compound RFU/control agonist RFU)×100. For the antagonist screens, the same procedure was followed except that the pretreatment solution consisted of the test compounds (prepared at […] the desired final concentration in 9% DMSO/assay buffer) and the FlexStation added the EC60 concentration (prepared at 10× the desired final concentration in 1% DMSO/assay buffer) of each respective control agonist. Peak RFU were used to calculate % control EC60 inhibition with the equation % inhibition=((EC60 RFU−test compound RFU)/EC60 RFU)×100. When IC50 determinations were made, the same antagonist screen procedure was followed except that cells were pretreated with 8-pt concentration-response curves of the test compounds. Peak RFU were plotted against the log of compound concentration using non-linear regression analysis to generate IC50 values (GraphPad Prism). Each test sample was analyzed in duplicate in two independent experiments.
Compounds were evaluated for activity at CaV 3.2 using stable human CaV3.2-HEK293 cells and the control agonist calcium chloride. The day before the assay, cells were plated into 96-well black-walled assay plates coated with poly-D-lysine in DMEM-F12 supplemented with 10% fetal bovine serum, 100 units penicillin/streptomycin, and 500 μM sodium pyruvate, and incubated at 37° C., 5% CO2 overnight. Prior to the assay, Calcium 5 dye (Molecular Devices) was reconstituted according to the manufacturer instructions. The reconstituted dye was diluted 1:10 in pre-warmed (37° C.) assay buffer (1×HBSS, […], […], pH 7.4 at 37° C.). The cells were incubated for 45 minutes at 37° C., 5% CO2 in 200 μL of the diluted Calcium 5 dye. Compounds were prepared as described above and the plate was read with a FLIPR Tetra (Molecular Devices). Calcium-mediated changes in fluorescence were monitored every 1 second over a 60 second time period, with the Tetra adding 25 μL of appropriate compound at the 10 second time point (excitation at 470-495 nm, detection at 515-575 nm). […]

CX3CR1 = target: T2, CX3CR1 (Homo sapiens, UniProt P49238); assay: NanoBiT β-arrestin-1 recruitment, receptor selectivity panel, CX3CR1; format: cell-based; settings: higher concentrations (3 μM, 10 μM); FIG. 3 sections B and C
T2 construct: expressed in transfected cells; host or cells: U87
T2 sequence (P49238 1-355): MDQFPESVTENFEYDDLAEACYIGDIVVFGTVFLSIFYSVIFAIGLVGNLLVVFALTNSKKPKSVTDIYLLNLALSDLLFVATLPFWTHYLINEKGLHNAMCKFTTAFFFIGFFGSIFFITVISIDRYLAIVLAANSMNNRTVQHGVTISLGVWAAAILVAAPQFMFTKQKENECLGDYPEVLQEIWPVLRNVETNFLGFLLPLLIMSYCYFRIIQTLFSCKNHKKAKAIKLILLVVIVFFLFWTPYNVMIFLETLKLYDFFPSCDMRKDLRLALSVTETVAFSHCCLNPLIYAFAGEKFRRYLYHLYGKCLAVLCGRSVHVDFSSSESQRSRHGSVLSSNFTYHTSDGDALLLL
Experimental: To further assess the selectivity profile of the compounds of the invention towards ACKR3, the ability to activate the 21 classical and 4 atypical chemokines receptors and related receptors was tested using the NanoBiT assay based β-arrestin-1 recruitment described previously. The 4 classical opioid receptors described above were also included in the experimental setup. The compounds WW-1 (conolidine) and WW-12 were tested at three different concentrations, 1 μM, 3 μM and 10 μM.
This possible off-target effect was further characterized by comparing the ability of the two molecules to activate receptors ACKR4, CX3CR1 and CCR3 with reference ligands for the receptors, namely CCL19, CX3CL1 and CCL13.
Ligand-induced β-arrestin recruitment to chemokine and opioid receptors was monitored by NanoLuc complementation assay (NanoBiT, Promega). […] Ligand-induced, β-arrestin to GPCRs was evaluated with a Mithras LB940 luminometer (Berthold Technologies, running on MicroWin 2010 5.19 software (Mikrotek Laborsysteme)) for 20 minutes.
For single dose screening experiments on all chemokine receptors(FIG. 3), the results are represented as percentage of signal monitored with 100 nM of one known agonist chemokine listed in the IUPHAR repository of chemokine receptor ligands which was added as positive control.

T1 sequence (O95180 whole entry): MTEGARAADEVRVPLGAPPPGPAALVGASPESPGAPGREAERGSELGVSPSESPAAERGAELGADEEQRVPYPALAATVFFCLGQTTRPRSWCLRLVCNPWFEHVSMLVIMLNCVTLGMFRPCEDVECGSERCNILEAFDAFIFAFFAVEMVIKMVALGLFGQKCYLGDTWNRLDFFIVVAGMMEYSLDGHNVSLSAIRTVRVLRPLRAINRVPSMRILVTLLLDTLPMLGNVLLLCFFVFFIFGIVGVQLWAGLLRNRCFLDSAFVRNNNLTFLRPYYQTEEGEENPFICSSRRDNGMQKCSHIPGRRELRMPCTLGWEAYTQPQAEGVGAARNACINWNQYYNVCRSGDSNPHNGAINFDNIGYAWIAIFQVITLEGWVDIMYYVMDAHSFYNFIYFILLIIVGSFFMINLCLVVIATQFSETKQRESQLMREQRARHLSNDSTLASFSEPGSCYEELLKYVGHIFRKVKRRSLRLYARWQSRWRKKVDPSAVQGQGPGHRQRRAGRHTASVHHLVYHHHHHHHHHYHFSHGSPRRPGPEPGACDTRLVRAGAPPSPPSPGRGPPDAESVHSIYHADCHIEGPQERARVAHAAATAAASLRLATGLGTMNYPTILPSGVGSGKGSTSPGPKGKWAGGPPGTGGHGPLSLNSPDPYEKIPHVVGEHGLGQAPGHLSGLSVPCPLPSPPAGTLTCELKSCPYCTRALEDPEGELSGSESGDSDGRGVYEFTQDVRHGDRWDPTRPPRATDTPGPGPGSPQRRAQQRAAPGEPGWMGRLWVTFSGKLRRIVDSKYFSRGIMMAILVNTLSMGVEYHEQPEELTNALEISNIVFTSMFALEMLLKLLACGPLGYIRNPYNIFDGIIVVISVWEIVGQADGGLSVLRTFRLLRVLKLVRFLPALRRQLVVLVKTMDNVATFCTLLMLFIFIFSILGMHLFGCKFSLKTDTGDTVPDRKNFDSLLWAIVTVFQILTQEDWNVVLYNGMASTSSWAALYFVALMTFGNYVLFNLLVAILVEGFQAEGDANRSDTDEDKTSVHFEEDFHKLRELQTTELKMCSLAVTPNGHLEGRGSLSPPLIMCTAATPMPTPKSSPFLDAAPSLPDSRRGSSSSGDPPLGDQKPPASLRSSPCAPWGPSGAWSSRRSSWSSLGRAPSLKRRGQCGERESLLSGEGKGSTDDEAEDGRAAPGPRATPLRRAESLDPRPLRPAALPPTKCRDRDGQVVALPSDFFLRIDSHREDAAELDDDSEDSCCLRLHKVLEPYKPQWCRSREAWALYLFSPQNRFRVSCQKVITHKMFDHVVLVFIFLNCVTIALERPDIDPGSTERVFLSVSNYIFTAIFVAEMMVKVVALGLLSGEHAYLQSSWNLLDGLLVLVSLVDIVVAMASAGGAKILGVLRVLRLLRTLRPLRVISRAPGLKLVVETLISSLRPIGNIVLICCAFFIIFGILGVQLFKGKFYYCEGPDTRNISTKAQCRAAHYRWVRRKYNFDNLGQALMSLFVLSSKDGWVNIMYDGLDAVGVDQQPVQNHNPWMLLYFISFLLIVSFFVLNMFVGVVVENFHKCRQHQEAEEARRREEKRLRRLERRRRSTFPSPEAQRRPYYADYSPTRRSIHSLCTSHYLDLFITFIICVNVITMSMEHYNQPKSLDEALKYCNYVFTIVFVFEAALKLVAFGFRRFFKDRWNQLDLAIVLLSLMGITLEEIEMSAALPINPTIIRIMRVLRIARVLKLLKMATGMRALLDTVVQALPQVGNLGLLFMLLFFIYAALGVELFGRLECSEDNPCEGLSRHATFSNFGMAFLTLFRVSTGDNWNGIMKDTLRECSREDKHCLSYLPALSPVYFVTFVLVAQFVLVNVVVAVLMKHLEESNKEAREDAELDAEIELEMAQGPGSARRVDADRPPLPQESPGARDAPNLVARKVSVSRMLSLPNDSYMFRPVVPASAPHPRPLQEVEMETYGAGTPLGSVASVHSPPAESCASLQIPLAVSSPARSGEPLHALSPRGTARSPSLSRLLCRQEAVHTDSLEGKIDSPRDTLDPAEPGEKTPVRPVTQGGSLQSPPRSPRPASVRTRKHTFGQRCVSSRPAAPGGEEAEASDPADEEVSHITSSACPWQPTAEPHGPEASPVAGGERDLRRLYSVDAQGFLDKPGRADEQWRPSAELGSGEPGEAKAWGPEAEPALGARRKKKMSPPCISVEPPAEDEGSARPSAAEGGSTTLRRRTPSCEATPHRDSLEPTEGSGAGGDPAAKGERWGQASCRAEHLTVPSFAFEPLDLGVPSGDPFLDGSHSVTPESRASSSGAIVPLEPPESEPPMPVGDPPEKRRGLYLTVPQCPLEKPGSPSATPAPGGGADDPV

Row | CaV 3.2 % CaCl2 Inhibition (CaV 3.2) | activation of CX3CR1 (β-arrestin-1 recruitment) in receptor panel (CX3CR1) | Compound
1 | −7% | weak activation | C/C=C1/CN2CC[C@H]1C(=O)c1[nH]c3ccccc3c1C2 [WW-1, (4E,5R)-4-ethylidene-1,4,5,7-tetrahydro-2,5-ethanoazocino[4,3-b]indol-6(3H)-one]
2 | 42% | weak activation | C/C=C1/CN(CCCCC)CC[C@H]1C(=O)c1cc2ccccc2[nH]1 [WW-12, [(3E,4R)-3-ethylidene-1-pentylpiperidin-4-yl](1H-indol-2-yl)methanone]
